Laboratory results reported in patent publication US5308763A, “Method of making primary culture of olfactory neurons” (The Johns Hopkins University, priority 1992, dated 1994).
Entries after “also recorded” stand apart in the source; their conditions may differ. Read-outs that look alike come from different tables or passages of the source.

Key:
[1] = test system: olfactory neurons; assay: Evaluation of substrate matrix substances for plating efficiency and morphology of olfactory neurons; type: cell-based, rat; details: for process / neurite outgrowth (in words) / plating efficiency (in words): culture surface coated with the substance
Description: Two chamber slides were pretreated in a number of ways, For laminin coating, 1 ml of MDV containing 25 ug/ml laminin was plated onto glass two-chamber slides overnight at 37° C.; before use, the slides were rinsed with MDV. For fibronectin, slides were treated with a solution containing 1 ml of MDV containing 20 ug/ml fibronectin (Collaborative Research), incubated overnight at 37° C. and rinsed with MDV prior to use. For polyornithine (PORN, Sigma Chemicals), a solution of a concentration of 1 mg/ml PORN in deionized distilled water was added to slides, incubated 1 hr at 37° C., rinsed twice with deionized distilled water, and rinsed once with MDV prior to use. When laminin was used on PORN-treated slides, slides were treated with PORN and then laminin in the usual manner. Coating of slides with poly-D-lysine was performed analogous to treatment with polyornithine. Heparan sulfate was diluted in MDV to a concentration of 10 ug/ml and 1 ml was placed on a slide, maintained overnight at 37° C., and rinsed with deionized distilled water prior to use. Collagen (Gibco) or collage IV (Collaborative Research) was prepared as a 50 ug/ml solution in deionized distilled water and 1 ml of this solution utilized per slide. In the case of collagen, the solution was allowed to air dry. Collage IV was maintained overnight at room temperature, aspirated, air dried and then rinsed twice with deionized distilled water prior to use. When laminin was used with collagen IV, collage IV was prepared as described, and laminin was subsequently added in the usual manner. Matrigel (Collaborative Research) was utilized according to manufacturer's instructions.
Primary cultures were prepared as described above and plated onto a number of different substrates and examined by phase contrast as well as immunofluorescence with antivimentin antisera (FIG. 6).
Matrigel was also examined as a substrate (FIG. 7).

[2] = test system: Primary olfactory neurons; assay: Effect of odorant on cyclic AMP levels in primary olfactory neuron cultures (RIA); type: cell-based, rat; details: for activity at 10 µM: Rattus norvegicus, Neuron, 10 uM IBMP, ± SEM, read-out: cAMP
Description: (§1) After 5-7 days in primary culture, olfactory neuronal cells were exposed to odorants and cyclic AMP levels assayed. To avoid transient changes in intracellular cyclic AMP levels caused by feeding, the medium was changed to 0.5 ml of MEM-AIR containing 0.1% (w/v) RIA-grade BSA 2-3 hr before use. At zero-time, cultures received an additional 0.5 ml of MEM-AIR with or without 10 uM 2-isobutyl-3-methoxypyrazine (IBMP). At various times thereafter the entire medium was aspirated and the reaction quenched by addition of 6% in cold TCA. Cellular extracts were processed and RIA for cyclic AMP was performed as described below.
(§2) Primary cultures of olfactory neurons were plated in laminin-treated 24-well cluster dishes at a density of 1×10^6 cells per cm^2. Cells were used between days 5-7 in culture. Thirty min before experimentation, monolayers were fed wtih MEM-AIR containing 0.1% (w/v) RIA grade BSA. Immediately prior to use, odorants were diluted from a 50 mM stock in absolute ethanol to 10 uM. At zero time, 0.5 ml of MEM-AIR containing 0.1% RIA grade BSA and odorant at twice the final concentration was added to wells.
(§3) The experiment was terminated by aspiration of culture medium and addition of 200 ul of 6% (w/v) trichloroacetic acid (TCA) at 0° C. Culture wells were heated to 56° C. in an oven for 1 hr, scraped, sonicated, chilled, and microfuged for 30 sec. The supernatants were extracted 4 times with 5 volumes of ether, and the ether-extracted water phase was lyophilized to dryness. Samples were resuspended in 200 ul of RIA-NEN buffer (NEN/DuPont, Boston, Mass.) and RIA assay was performed according to specifications of the cyclic AMP kit.

[3] = test system: NG-108 cells; assay: Effect of odorant on cyclic AMP levels in NG-108 cells (RIA); type: cell-based; details: for activity at 10 µM: 10 uM IBMP, ± SEM, read-out: cAMP
Description: as §1, §2, §3
1 NG-108 cells (a generous gift from Dr. Karen Braas, University of Vermont, Burlington, Vt.) were grown and maintained as previously described (Braas, Childers and U'Prichard, 1983). For experimentation, cells were plated in 24-well clustered dishes and treated similarly to olfactory neurons. NG-108 cells are hybrid cells of a globlastoma and a non-olfactory neural-like cell. NG-108 is a continuous cell line.

[4] = test system: adenylyl cyclase; assay: Adenylyl cyclase augmentation in olfactory neuronal cultures by odorants; type: cell-based
Source text: The cells of the olfactory epithelium from which the neuronal cells have been purified are mainly the sustentacular cells and the basal cells. These cells can be distinguished on the basis of morphology, marker proteins, and lack of excitability.

[5] = test system: olfactory neurons; assay: Effect of NGF on olfactory neuronal survival and neurite extension; type: cell-based, rat
[6] = read-out: concentration eliciting comparable levels of excitation (50% of maximal adenylyl cyclase augmentation)

## fibronectin
[1]
  process / neurite outgrowth (in words): processes are shorter

## COc1nccnc1CC(C)C [IBMP, 2-isobutyl-3-methoxypyrazine]
[2]; 0.5 min
  activity at 10 µM: 350 ± 160%
[2]; 1 min
  activity at 10 µM: 250 ± 92%
[2]; 5 min
  activity at 10 µM: 270 ± 113%
[2]; 0.25 h, time 15 min
  activity at 10 µM: 175 ± 47%
[2]; olfactory neurons
  maximum increase in intracellular cyclic AMP over control levels: approximately three
  rise in intracellular cyclic AMP levels (in words): rapid, transient rise in intracellular cyclic AMP levels
[3]; NG-108, 0.5 min, time 0.5 min
  activity at 10 µM: 103 ± 19%
[3]; NG-108, 1 min, time 1.0 min
  activity at 10 µM: 94 ± 32%
[3]; NG-108, 5 min, time 5.0 min
  activity at 10 µM: 99 ± 16%
[3]; NG-108, 0.25 h, time 15 min
  activity at 10 µM: 70 ± 41%
[3]; NG-108 cells, similar treatment
  change of cyclic AMP levels (in words): does not alter cyclic AMP levels
[4]; read-out: concentration stimulating to 50% of maximal adenylyl cyclase augmentation
  EC50: 1 nM

## CC(C)CC(=O)O [isovaleric acid]
[4]; [6]
  EC50: 1000 to 10000 nM

## CC(C)=CCCC(C)=CC#N [citralva]
[4]; [6]
  EC50: 1000 to 10000 nM

## collagen
[1]
  plating efficiency (in words): somewhat better plating efficiency than poly-D-lysine, polyornithine or heparan-sulfate
  process / neurite outgrowth (in words): process outgrowth is still stunted

## laminin
[1]
  plating efficiency (in words): optimal plating efficiency
  process / neurite outgrowth (in words): cells extend neurites in a random fashion
[1]; duplicate suspensions, laminin vs matrigel, FIG. 7
  aggregation of cells (in words): no tendency to reaggregate

B1: NGF: nerve growth factor (NGF, Collaborative Research) (protein, UniProt P01139 122-241, looked up)
Beta-nerve growth factor: SSTHPVFHMGEFSVCDSVSVWVGDKTTATDIKGKEVTVLAEVNINNSVFRQYFFETKCRASNPVESGCRGIDSKHWNSYCTTTHTFVKALTTDEKQAAWRFIRIDTACVCVLSRKATRRG
modifications: Beta-nerve growth factor
[5]; NGF 25 ng/ml
  survival and neurite extension (in words): necessary for survival of olfactory neurons; also recorded: affects both olfactory neuronal survival and neurite extension in culture
[5]; by 3 days in culture, without NGF
  process extension without NGF (in words): lose process extension
[5]; by 3 days in culture, without vs with 25 ng/ml NGF
  decrease of cell viability without NGF: approximately 85%
